Experimental data reported in patent publication US10233144B2, “Crystalline form of AHU377, preparation method and use thereof” (CRYSTAL PHARMATECH CO., LTD., priority 2015, dated 2019).

Test: Hygroscopicity assessment by dynamic vapor sorption (DVS)
Assay type: physicochemical
Conditions: 25° C.; for weight gain under 80% RH: DVS, 10 mg sample
Protocol: Dynamic Vapor Sorption (DVS) was measured via a SMS (Surface Measurement Systems) DVS Intrinsic. Typical Parameters for DVS test are listed below. Temperature: 25° C. Gas and flow rate: N2, 200 mL/min dm/dt: 0.002%/min RH range: 0% RH to 95% RH 10 mg of crystalline Form I of the present disclosure was tested using dynamic vapor sorption (DVS). 4. The DVS isotherm plot of crystalline Form I is depicted in FIG. 4. About hygroscopicity characterization description and definition of hygroscopicity (Chinese Pharmacopoeia 2010 edition appendix XIX J Drug hygroscopic test guidelines, test at 25° C.±1° C., 80% Relative Humidity) • deliquescent: sufficient water is absorbed to form a liquid; • very hygroscopic: increase in mass is equal to or greater than 15 percent; • hygroscopic: increase in mass is less than 15 percent and equal to or greater than 2 percent; • slightly hygroscopic: increase in mass is less than 2 percent and equal to or greater than 0.2 percent. • no or almost no hygroscopic: increase in mass is less than 0.2 percent

weight gain under 80% RH: 0.35%
weight gain under 80% RH (listed as crystalline Form I): 0.35%
SMILES: CCOC(=O)[C@H](C)C[C@@H](Cc1ccc(-c2ccccc2)cc1)NC(=O)CCC(=O)O [Crystalline Form I of AHU377, (2R,4S)-5-(Biphenyl-4-yl)-4-[(3-carboxypropionyl)amino]-2-methylpentanoic acid ethyl ester]
hygroscopicity (class according to hygroscopic test guidelines) (Chinese Pharmacopoeia 2010 appendix XIX J, 80% Relative Humidity): slightly hygroscopic (increase in mass is less than 2 percent and equal to or greater than 0.2 percent)
